A short description of the assay: direct peptide reactivity assay (DPRA), in-chemico, unbound peptide detected with Ellman's reagent. The settings on record: 24 h reaction; allergen 5 mM, peptide 0.5 mM; absorbance at 415 nm with DTNB; urushiol structures I-V; n = 3; FIG. 2. The procedure: The absorbance is plotted on the y-axis. The peptide-allergen reactions were realized according to a direct peptide reactivity assay. The test is referred to as the in-chemico method, that is to say no cells are used, but a chemical reaction is carried out.
The direct peptide reaction assay (DPRA) is an OECD-validated test method.
The native, still-unbound peptide is detected by reaction with Ellman’s reagent and corresponding absorbance measurement. The direct peptide reactivity assay (DPRA) is a chemical method for predicting epidermal protein binding. DPRA uses for example HPLC to measure the depletion of peptides in solution after exposure to test chemicals.
RFAACAA was selected as an example of a peptide of the invention.
In the DPRA method, the absorbance at 415 nm is determined as the measured variable.
The allergen concentration is in the investigations carried out a standard 5 mM and thus 10 times the concentration of the peptide used (0.5 mM).
The reaction courses shown were determined colorimetrically through the reaction of the peptide with Ellmann’s reagent in a photometer. In this reaction, DTNB ((5,5′-dithiobis-2-nitrobenzoic acid, Ellmann’s reagent) is cleaved and attached to the SH residue of the amino acid cysteine of the peptides of the invention (RFAACAA).
The SH radical is at the same time the reactive binding site of the peptide with the allergens. […]
(DTNB colorimetry detects thiols as they appear.)

Take RFAACAA [Arg Phe Ala Ala Cys Ala Ala]: the “reactivity of peptides with urushiol allergens (fall in peptide, protective activity)” value is recorded as “very high reactivity”.
The value for “acetyl-arginine-phenylalanine-alanine-alanine-cysteine-alanine-alanine [Ac-RFAACAA]” was “very high reactivity”.

The values above are taken from patent US20230181674A1, “ALLERGEN PROTECTION AGAINST URUSHIOLS” (BEIERSDORF AG, priority 2020, published 2023).
